Experimental data reported in the NIST ThermoML archive (doi:10.1016/j.jct.2013.05.036).

Details: 101.33 kPa, Liquid, Levitation methods

[Os] [osmium]
Details	viscosity [mPa·s]
3265 K	7.4
3290 K	7.2
3306 K	7
3315 K	7
3340 K	6.7
3365 K	6.5
3390 K	6.3
3415 K	6.1
3440 K	6
3465 K	5.8
3490 K	5.6
3515 K	5.5
3542 K	5.3

[Ta] [tantalum]
Details	viscosity [mPa·s]
2880 K	13.4
2900 K	13.1
2950 K	12.4
3000 K	11.7
3050 K	11.1
3100 K	10.6
3150 K	10.1
3200 K	9.6
3250 K	9.2
3293 K	8.9
3300 K	8.8
3350 K	8.4
3400 K	8.1
3450 K	7.8
3500 K	7.5
3514 K	7.4

[Mo] [molybdenum]
Details	viscosity [mPa·s]
2573 K	6.7
2600 K	6.6
2650 K	6.2
2700 K	5.9
2750 K	5.7
2800 K	5.4
2850 K	5.2
2896 K	5
2900 K	5
2950 K	4.8
3000 K	4.6
3050 K	4.5
3100 K	4.3
3150 K	4.2
3213 K	4

[Re] [rhenium]
Details	viscosity [mPa·s]
3034 K	14.9
3050 K	14.6
3100 K	13.9
3150 K	13.2
3200 K	12.5
3250 K	12
3300 K	11.4
3350 K	10.9
3400 K	10.4
3450 K	10
3459 K	9.9
3500 K	9.6
3550 K	9.2
3600 K	8.8
3650 K	8.5
3675 K	8.4

[W] [tungsten]
Details	viscosity [mPa·s]
3155 K	16.7
3200 K	15.7
3250 K	14.6
3300 K	13.7
3350 K	12.8
3400 K	12
3450 K	11.3
3500 K	10.6
3550 K	10
3600 K	9.4
3634 K	9.1
3695 K	8.5
